Data published in patent US20240034717A1, “NOVEL POTASSIUM CHANNEL INHIBITORS” (Saniona A/S, priority 2020, published 2024).

Biological target: erythrocyte KCa3.1 channels (Homo sapiens (Human), UniProt O15554)
Assay: Erythrocyte KCa3.1 assay
Assay type: cell-based
Conditions: human erythrocytes, A23187-activated KCa3.1; read-out: RBC K (in vitro) Human IC50 (μM) Potency category
Method: Human blood was drawn from healthy human volunteers in a standard heparinized blood sampling vial (Vacutainer, Li/heparin, ED Bioscience, Plymouth, UK). The erythrocytes were packed by centrifugation, and the plasma and buffy coat were removed by aspiration. Erythrocytes were washed three times in the experimental salt solution and then stored at 0° C. until use. Blood samples from NMRI mice or from Wistar rats were treated similarly. The methodological principle is outlined in Macey et al. (1978) and further described in Strøbaek et al. (2013). Activation of the erythrocyte KCa3.1 channels were obtained by addition of the Ca^2+ ionophore A23187, which causes synchronized hyperpolarization, which is reported as a CCCP-mediated shift in the unbuffered extracellular pH of the erythrocyte suspension. Standard procedure: 3 mL unbuffered experimental salt solution (in mM: 2 KCl, 154 NaCl, 0.05 CaCl2) was heated to 37° C. with stirring. Packed erythrocytes were added (50 μL, final cytocrit 1.5%), and the extracellular pH (pHo) followed with a glass/calomel (pHG200-8/REF200, Radiometer, Denmark) electrode pair. CCCP (3 μL, final concentration 20 μM) was added followed by varying concentrations of test compounds (DMSO concentration constant). After pH stabilization at ˜7.2, A23187 (3 μL, final concentration 0.33 μM) was added to initiate the experiment. After the peak hyperpolarization was attained, the intracellular pH (pHi constant during the experiment) was found by haemolysing the erythrocytes via addition of 100 μL of Triton-X100.
The erythrocyte membrane potential, Vm, was calculated according to: […]
and the fractional remaining Ca^2+-activated K^+-conductance at the concentration C of blocker, fGK(C), was calculated from
where the K^+ equilibrium potential EK=−107 mV, the Cl^− equilibrium potential ECl=−12 mV and the Vm(0) and Vm(C) are the peak hyperpolarizations in the control and in the presence of a concentration of C of blocker respectively.
IC50 values for compounds were calculated from a plot of fGK(C) versus C by a fit to the Hill equation, using a custom program written in the IGOR-Pro software (WaveMetrics, Lake Oswego, OR, USA). All IC50-values are reported in μM.

IC50 [µM]	Compound
< 1	FC(F)(F)Oc1cccc(C2(NC[C@H]3CCCN3)CCC2)c1 [N-{[(2R)-pyrrolidin-2-yl]methyl}-1-[3-(trifluoromethoxy)phenyl]cyclobutan-1-amine]
< 0.3	COC(=O)N(C[C@@H]1COCCN1C)C1(c2ccc(F)c(C(F)(F)F)c2)CC1 [Methyl (R)-(1-(4-fluoro-3-(trifluoromethyl)phenyl)cyclopropyl)((4-methylmorpholin-3-yl)methyl)carbamate]
< 1	COC(=O)N(C1CNC1)C1(c2ccc(F)c(C(F)(F)F)c2)CC1 [Methyl azetidin-3-yl(1-(4-fluoro-3-(trifluoromethyl)phenyl)cyclopropyl)carbamate]
< 0.3	COC(=O)N(CC(C)(C)N)C1(c2cccc(OC(F)(F)F)c2)CCC1 [Methyl N-(2-amino-2-methylpropyl)-N-{1-[3-(trifluoromethoxy)phenyl]cyclobutyl}carbamate]
< 0.3	Fc1ccc(C2(NC[C@@H]3CCCN3)CCC2)cc1C(F)(F)F [1-[4-fluoro-3-(trifluoromethyl)phenyl]-N-{[(2S)-pyrrolidin-2-yl]methyl}cyclobutan-1-amine]
< 1	Fc1cc(C(F)(F)F)cc(C2(NC[C@H]3CCCN3)CCC2)c1 [1-[3-fluoro-5-(trifluoromethyl)phenyl]-N-{[(2R)-pyrrolidin-2-yl]methyl}cyclobutan-1-amine]
< 0.3	CC(C)(N)CNC1(c2cccc(Cl)c2)CCC1 [N1-[1-(3-chlorophenyl)cyclobutyl]-2-methylpropane-1,2-diamine]
< 0.3	COC(=O)N(C[C@@H]1CCCN1)C1(c2ccc(F)c(C(F)(F)F)c2)CCC1 [methyl N-{1-[4-fluoro-3-(trifluoromethyl)phenyl]cyclobutyl}-N-{[(2S)-pyrrolidin-2-yl]methyl}carbamate]
< 0.3	COC(=O)N(C[C@H]1CCCN1)C1(c2cccc(Cl)c2)CCC1 [Methyl N-[1-(3-chlorophenyl)cyclobutyl]-N-{[(2R)-pyrrolidin-2-yl]methyl}carbamate]

More lines, now with the values behind:

Compound	IC50 [µM]
FC(F)(F)c1cccc(C2(NC[C@H]3CCCN3)CCC2)c1 [N-{[(2R)-pyrrolidin-2-yl]methyl}-1-[3-(trifluoromethyl)phenyl]cyclobutan-1-amine]	< 1
COC(=O)N(C[C@@H]1CCCN1)C1(c2cccc(C(F)(F)F)c2)CCC1 [methyl N-{[(2S)-pyrrolidin-2-yl]methyl}-N-{1-[3-(trifluoromethyl)phenyl]cyclobutyl}carbamate]	< 0.3
COC(=O)N(C[C@H]1CCCN1)C1(c2cc(F)cc(C(F)(F)F)c2)CCC1 [Methyl N-{1-[3-fluoro-5-(trifluoromethyl)phenyl]cyclobutyl}-N-{[(2R)-pyrrolidin-2-yl]methyl}carbamate]	< 0.3
CC(C)(N)CNC1(c2ccc(F)c(C(F)(F)F)c2)CCC1 [N1-{1-[4-fluoro-3-(trifluoromethyl)phenyl]cyclobutyl}-2-methylpropane-1,2-diamine]	< 0.3
COC(=O)N(CC(C)(C)N)C1(c2cccc(C(F)(F)F)c2)CCC1 [methyl N-(2-amino-2-methylpropyl)-N-{1-[3-(trifluoromethyl)phenyl]cyclobutyl}carbamate]	< 0.3
COC(=O)N(C[C@@H]1COCCN1)C1(c2ccc(F)c(C(F)(F)F)c2)CC1 [Methyl (R)-(1-(4-fluoro-3-(trifluoromethyl)phenyl)cyclopropyl)(morpholin-3-ylmethyl) carbamate]	< 1
Fc1ccc(C2(NC[C@@H]3CCCN3)CCC2)cc1C1CC1 [1-(3-cyclopropyl-4-fluorophenyl)-N-{[(2S)-pyrrolidin-2-yl]methyl}cyclobutan-1-amine]	< 1
COC(=O)N(C[C@H]1CCCN1)C1(c2cccc(C(F)(F)F)c2)CCC1 [methyl N-{[(2R)-pyrrolidin-2-yl]methyl}-N-{1-[3-(trifluoromethyl)phenyl]cyclobutyl}carbamate]	< 0.3
COC(=O)N(C[C@@H]1CCCN1)C1(c2cc(Cl)ccc2F)CCC1 [Methyl N-[1-(5-chloro-2-fluorophenyl)cyclobutyl]-N-{[(2S)-pyrrolidin-2-yl]methyl}carbamate]	< 1
